Assay results taken from ChEMBL document CHEMBL4706663, “Large-scale isolation and antitumor mechanism evaluation of compounds from the traditional Chinese medicine Cordyceps Militaris” (Eur J Med Chem, 2021).
Calls of active or inactive are those of the source. No cut-off for these calls is given here.

Experiments:
[1] = Antitumor activity against […] cancer cells xenografted in BALB/c mouse assessed as tumor weight at 240 mg/kg, ig administered every day for 10 days (reference value: 1.68 +/- 0.78 g); format: functional, Lewis lung carcinoma; conditions: time 10 day
[2] = Antitumor activity against […] cancer cells xenografted in BALB/c mouse assessed as tumor weight at 80 mg/kg, ig administered every day for 10 days (reference value: 1.68 +/- 0.78 g); format: functional, Lewis lung carcinoma; conditions: time 10 day
[3] = Antitumor activity against […] cancer cells xenografted in BALB/c mouse assessed as tumor growth inhibition at 80 mg/kg, ig administered every day for 10 days relative to control; format: functional; conditions: Lewis lung carcinoma, po, 240 h, time 10 day, read-out: TGI
[4] = Antitumor activity against […] cancer cells xenografted in BALB/c mouse assessed as lung weight at 80 mg/kg, ig administered every day for 10 days measured post last dose (reference value: 0.13 +/- 0.03 g); format: functional, Lewis lung carcinoma; conditions: time 10 day
[5] = Antitumor activity against […] cancer cells xenografted in BALB/c mouse assessed as lung weight at 27 mg/kg, ig administered every day for 10 days measured post last dose (reference value: 0.13 +/- 0.03 g); format: functional, Lewis lung carcinoma; conditions: time 10 day
[6] = Antitumor activity against […] cells xenografted in KM mouse assessed as tumor growth inhibition at 240 mg/kg, ig administered every day for 10 days relative to control; format: functional; conditions: H22, po, 240 h, time 10 day, read-out: TGI
[7] = Antitumor activity against […] cells xenografted in KM mouse assessed as liver weight at 240 mg/kg, ig administered every day for 10 days measured post last dose (reference value: 1.57 +/- 0.3 g); format: functional; conditions: time 10 day
[8] = Toxicity in […] cells xenografted KM mouse assessed as net weight at 80 mg/kg, ig administered every day for 10 days (reference value: 9.45 +/- 4 g); format: organism-based; conditions: in vivo, po, 240 h, time 10 day
[9] = Toxicity in […] cells xenografted KM mouse assessed as survival rate at 27 mg/kg, ig administered every day for 10 days relative to control; format: organism-based; conditions: in vivo, po, time 10 day
[10] = biological target: Tropomyosin alpha-1 chain (Homo sapiens) (UniProt P09493); experiment: Binding affinity to tropomyosin alpha-1 chain isoform 1 in human A549 cells by LC-MS/MS analysis; format: cell-based
Sequence of Tropomyosin alpha-1 chain (Homo sapiens) (P09493 whole entry, canonical isoform): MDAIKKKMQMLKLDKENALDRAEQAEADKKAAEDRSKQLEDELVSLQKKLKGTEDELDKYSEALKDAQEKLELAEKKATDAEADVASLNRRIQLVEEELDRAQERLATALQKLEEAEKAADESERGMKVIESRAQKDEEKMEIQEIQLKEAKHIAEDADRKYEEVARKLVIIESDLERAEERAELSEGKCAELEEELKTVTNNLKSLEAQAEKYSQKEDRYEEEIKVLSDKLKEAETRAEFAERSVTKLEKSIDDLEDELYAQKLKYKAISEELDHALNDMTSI

With CC(C)[C@@H](C)/C=C/[C@@H](C)[C@H]1CC[C@H]2C3=CC=C4C[C@@H](O)CC[C@]4(C)[C@H]3CC[C@]12C [ERGOSTEROL] the Activity [1] was 0.93 g, the Activity [2] was 1.21 g and the inhibition in vivo at 80 mg/kg [3] was 28.4%. The Activity [4] was 0.12 g, the Activity [5] was 0.12 g and the inhibition in vivo at 240 mg/kg [6] was 64.4%. For the same molecule, the Activity [7] was 1.57 g, the Activity [8] was 7.78 g and the survival at 240 h [9] was 100%. The Activity [10] was “Active”.
